Results as given in US8318771B2, “Method of treatment of nephrogenic diabetes insipidus” (Universita' Degli Studi di Bari, priority 2010, dated 2012).

How the values were obtained:
[1] = test system: MCD4 cells; experiment: Surface protein biotinylation of apical membrane AQP2 in MCD4 cells (densitometric analysis, FIG. 1); type: cell-based; settings: control set to 100%
Source text: (§1) In MCD4 cells in the absence of lovastatin in the culture medium (-Lovastatin) and in control (ctr) conditions, the AQP2 is stored in intracellular vesicles. […] The FK mimes the effect of the vasopressin in in vitro experiments. The same phenomenon occurs in the tubule in vivo following release into the circulation of vasopressin. […] The lovastatin therefore mimes the effect of the FK or the stimulation with vasopressin. […] It is possible to quantize the effect of the treatment with lovastatin in terms of accumulation of AQP2 on the apical membrane by means of surface protein biotinylation experiments.
In the absence of lovastatin, only a modest amount of AQP2 is expressed on the apical membrane of the MCD4 cells, and therefore biotinylated, in control cells. The treatment with FK determines an increase of approximately 3 times in the amount of AQP2 expressed on the apical membrane.

[2] = test system: MCD4 cells; experiment: AQP2 localisation on the apical membrane of MCD4 renal cells in culture; type: cell-based
Experimental: The MCD4 cells, which are in culture and derive from main cells of the renal collecting duct, were treated experimentally with lovastatin. In the cell model, as in the renal tubule in vivo, the presence of AQP2 on the membrane depends on the presence of vasopressin.
as §1
In vitro tests performed in MCD4 renal cells indicate that the minimum treatment time with statins able to produce an evident shift of the AQP2 in the cells is 6 hours.

CC[C@H](C)C(=O)O[C@H]1C[C@@H](C)C=C2C=C[C@H](C)[C@H](CC[C@@H]3C[C@@H](O)CC(=O)O3)[C@H]21 [lovastatin]
increase of AQP2 present on the apical membrane (biotinylated) ([1]; 72 h with lovastatin alone): comparable to the one obtained by the FK
increase in the AQP2 on the apical membrane ([2]; MCD4 cells, lovastatin in the medium plus treatment with FK): even more evident
AQP2 accumulation on the apical membrane ([2]; MCD4 control (ctr) cells, 5 μM lovastatin in the culture medium for 72 h): accumulate a considerable amount of AQP2 on the apical membrane

CC(C)c1nc(N(C)S(C)(=O)=O)nc(-c2ccc(F)cc2)c1/C=C/[C@@H](O)C[C@@H](O)CC(=O)O [rosuvastatin]
effect produced by the lovastatin (AQP2 accumulation on the apical membrane) induced by other statins ([2]; MCD4 cells, hydrosoluble formulation): induced also

C=C[C@@]1(C)CC(=O)[C@]2(O)[C@@]3(C)[C@@H](O)CCC(C)(C)[C@@H]3[C@H](O)[C@H](OC(C)=O)[C@@]2(C)O1 [forskolin]
increase in the amount of AQP2 expressed on the apical membrane (biotinylated) ([1]; treatment with FK): approximately 3 times
